Experiment [1] concerns the target T1, 5HT2A receptor (Homo sapiens, UniProt P28223). As to the kind of experiment: cell-based. Set-up: expressed in transfected cells; host or cells: HEK293T cells, transient co-transfection. Conditions: for Emax: HEK-293T.
Experiment [2] deals with T1, 5HT2A receptor. Description: biochemical. It is filed as binding. Set-up: expressed in transfected cells; crude membranes.
[3] abbreviates: 5HTA Gq EC50 (nM), BRET2 Gαq dissociation, HEK293T.
Setting [4] is: read-out: 5HTA Gq Emax (%), BRET2 Gαq dissociation, HEK293T, normalized to 5-HT.
Setting [5] is: 5HT2A Ki (nM), secondary binding assay, Cheng-Prusoff.
Where [6] appears, read: BRET2 Gαq dissociation, HEK293T, normalized to 5-HT, read-out: 5HTA Gq Emax (%).
Where [7] appears, read: 5HT2A Gq EC50 (nM), BRET2 Gαq dissociation, HEK293T cells.
[8] abbreviates: BRET2 Gαq dissociation, HEK293T cells, normalized to 5-HT, read-out: 5HT2A Gq Emax (%).
The mark [9] stands for this setting: 5HT2A Ki (nM), secondary radioligand binding, Ki from IC50 by Cheng-Prusoff.

Like-named read-outs stand apart in the source and are kept apart here.

T1 sequence (P28223 whole entry): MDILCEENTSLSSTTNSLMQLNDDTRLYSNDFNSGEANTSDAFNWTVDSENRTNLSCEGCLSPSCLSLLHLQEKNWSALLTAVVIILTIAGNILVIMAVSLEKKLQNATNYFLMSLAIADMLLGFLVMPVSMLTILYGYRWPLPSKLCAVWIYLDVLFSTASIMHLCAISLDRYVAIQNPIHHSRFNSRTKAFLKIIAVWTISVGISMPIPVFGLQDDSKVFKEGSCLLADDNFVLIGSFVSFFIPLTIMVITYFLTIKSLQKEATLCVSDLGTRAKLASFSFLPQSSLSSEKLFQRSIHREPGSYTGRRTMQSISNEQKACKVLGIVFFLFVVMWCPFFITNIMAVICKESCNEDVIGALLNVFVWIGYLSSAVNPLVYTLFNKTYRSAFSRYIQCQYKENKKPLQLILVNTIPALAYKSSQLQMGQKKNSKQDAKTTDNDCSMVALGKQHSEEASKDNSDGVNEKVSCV

In the case of `Fc1cccc2c(C3CNC3)c[nH]c12` [Example 259, 3-(azetidin-3-yl)-7-fluoro-1H-indole], in experiment [1] (setting [3]), a half-maximal effect (EC50) was put at 944 nM. Besides, in experiment [1] (setting [4]), the Emax is 81.6%. Moreover, in experiment [2] (setting [5]), the Ki worked out at 168 nM. As for `Cc1ccc2[nH]cc(C3=CCCN(C)C3)c2n1` [Example 140, 5-methyl-3-(1-methyl-1,2,5,6-tetrahydropyridin-3-yl)-1H-pyrrolo[3,2-b]pyridine], in experiment [1] (setting [3]), the EC50 came to 247 nM. Moreover, in experiment [1] (setting [6]), the Emax stood at 62.6%. In experiment [2] (setting [5]), this molecule came in with a Ki of 1130 nM. `CCCN1CCC=C(c2n[nH]c3c(Cl)cccc23)C1` [Example 123, 7-chloro-3-(1-propyl-1,2,5,6-tetrahydropyridin-3-yl)-1H-indazole] returned an EC50 in experiment [1] (setting [7]) of 142 nM. Besides, in experiment [1] (setting [8]), the maximum response (Emax) was found to be 66.9%. Further, affinity in experiment [2] (setting [9]) was put at a Ki of 140 nM. In the case of `Clc1cccc2c(C34CCNCC3C4)n[nH]c12` (centres unmarked) [Example 228, 3-(3-azabicyclo[4.1.0]heptan-6-yl)-7-chloro-1H-indazole], the EC50 in experiment [1] (setting [3]) was 1070 nM. Further, the Emax in experiment [1] (setting [6]) turned out to be 76.4%. In addition, the affinity in experiment [2] (setting [5]), expressed as Ki, was 5240 nM.

For `Fc1cc(Cl)c2[nH]nc(C34CNCC3C4(F)F)c2c1` (centres unmarked) [Example 203, 7-chloro-3-(6,6-difluoro-3-azabicyclo[3.1.0]hexan-1-yl)-5-fluoro-1H-indazole], the EC50 in experiment [1] (setting [3]) was 700 nM. Besides, the Emax in experiment [1] (setting [6]) amounted to 39.5%. The molecule further yielded a Ki in experiment [2] (setting [5]) of 1080 nM. For the molecule `CCCN1CCC=C(c2c[nH]c3ccncc23)C1` [Example 144, 3-(1-propyl-1,2,5,6-tetrahydropyridin-3-yl)-1H-pyrrolo[3,2-c]pyridine], it took 1180 nM to reach a half-maximal effect in experiment [1] (setting [3]) (EC50). In experiment [1] (setting [6]), the Emax was 67.2%. The molecule further displayed a Ki in experiment [2] (setting [5]) of 8250 nM.

As for `CN1CCC=C(c2c[nH]c3ccncc23)C1` [Example 136, 3-(1-methyl-1,2,5,6-tetrahydropyridin-3-yl)-1H-pyrrolo[3,2-c]pyridine], in experiment [1] (setting [3]), the EC50 is 529 nM. Besides, the Emax in experiment [1] (setting [6]) turned out to be 92.5%. The Ki in experiment [2] (setting [5]) came out at 1810 nM.

Take `CCc1[nH]c2ccccc2c1C1=CCCN(C)C1` [Example 65, 2-ethyl-3-(1-methyl-1,2,5,6-tetrahydropyridin-3-yl)-1H-indole]: the EC50 in experiment [1] (setting [7]) was 124 nM. Besides, the Emax in experiment [1] (setting [8]) is 51.2%. This molecule showed a Ki in experiment [2] (setting [9]) of 221 nM.

Consider `COc1cccc2c(C3=CCCN(C)C3)c[nH]c12` [Example 53, 7-methoxy-3-(1-methyl-1,2,5,6-tetrahydropyridin-3-yl)-1H-indole], for which the response in experiment [1] (setting [7]) was half-maximal at 166 nM (EC50). Also, the Emax in experiment [1] (setting [8]) was found to be 77.8%. Further, in experiment [2] (setting [9]), the affinity, expressed as Ki, was 374 nM. `CCC(C)N1CCC=C(c2n[nH]c3c(Cl)cccc23)C1` (centres unmarked) [Example 167, 3-(1-(sec-butyl)-1,2,5,6-tetrahydropyridin-3-yl)-7-chloro-1H-indazole]: in experiment [1] (setting [3]), the EC50 was 173 nM. Also, the Emax in experiment [1] (setting [6]) was found to be 25.7%. In experiment [2] (setting [5]), this molecule returned a Ki of 525 nM. With `CN1CC2CC2(c2n[nH]c3c(Cl)cccc23)C1` (centres unmarked) [Example 183, 7-chloro-3-(3-methyl-3-azabicyclo[3.1.0]hexan-1-yl)-1H-indazole], the EC50 in experiment [1] (setting [3]) was determined as 251 nM. Also, the Emax in experiment [1] (setting [4]) was found to be 69.7%. In experiment [2] (setting [5]), this molecule gave a Ki of 595 nM. On to `CN1CCOC(c2c[nH]c3c(Cl)cccc23)C1` (centres unmarked) [Example 246, 2-(7-chloro-1H-indol-3-yl)-4-methylmorpholine], for which the EC50 in experiment [1] (setting [3]) stood at 620 nM. The Emax in experiment [1] (setting [6]) is 69.6%. This molecule displayed a Ki in experiment [2] (setting [5]) of 2140 nM.

For the molecule `CN1CCC2CC2(c2n[nH]c3c(Cl)cc(F)cc23)C1` (centres unmarked) [Example 198, 7-chloro-5-fluoro-3-(3-methyl-3-azabicyclo[4.1.0]heptan-1-yl)-1H-indazole], a half-maximal effect in experiment [1] (setting [3]) (EC50) was put at 1160 nM. The Emax in experiment [1] (setting [6]) is 45.1%. In experiment [2] (setting [5]), the Ki is 1450 nM. In the same order, the values of `Cc1ccc2[nH]cc(C3=CCCNC3)c2n1` [Example 139, 5-methyl-3-(1,2,5,6-tetrahydropyridin-3-yl)-1H-pyrrolo[3,2-b]pyridine] are 785 nM, 112% and 4180 nM. In experiment [1] (setting [7]), `Cc1[nH]c2ccccc2c1C1=CCCNC1` [Example 61, 2-methyl-3-(1,2,5,6-tetrahydropyridin-3-yl)-1H-indole] had an EC50 of 363 nM. Also, the Emax in experiment [1] (setting [8]) amounted to 67.4%. This molecule also came in with a Ki in experiment [2] (setting [9]) of 805 nM. In the same order, the values of `CN1CCC=C(c2c[nH]c3c(O)cccc23)C1` [Example 60, 3-(1-methyl-1,2,5,6-tetrahydropyridin-3-yl)-1H-indol-7-ol] are 440 nM, 64.3% and 795 nM.

In experiment [1] (setting [3]), `Cc1cccc2c(C34CC3CN(C)C4)n[nH]c12` (centres unmarked) [Example 227, 7-methyl-3-(3-methyl-3-azabicyclo[3.1.0]hexan-1-yl)-1H-indazole] showed an EC50 of 684 nM. Moreover, in experiment [1] (setting [6]), the Emax worked out at 32.5%. Moreover, the Ki in experiment [2] (setting [5]) stood at 1450 nM. The molecule `Clc1cccc2c(C34CNCC3C4)n[nH]c12` (centres unmarked) [Example 180, 3-(3-azabicyclo[3.1.0]hexan-1-yl)-7-chloro-1H-indazole] gave an EC50 in experiment [1] (setting [3]) of 174 nM. The Emax in experiment [1] (setting [4]) worked out at 109%. Moreover, affinity in experiment [2] (setting [5]) was put at a Ki of 227 nM. In experiment [1] (setting [3]), `CN1CCCC=C(c2n[nH]c3c(Cl)cccc23)C1` [Example 211, 7-chloro-3-(1-methyl-2,5,6,7-tetrahydro-1H-azepin-3-yl)-1H-indazole] registered an EC50 of 732 nM. In addition, the Emax in experiment [1] (setting [6]) worked out at 59.9%. This molecule also gave a Ki in experiment [2] (setting [5]) of 1180 nM. For `Cc1cnc2[nH]cc(C3=CCCN(C)C3)c2c1` [Example 5, 5-methyl-3-(1-methyl-1,2,5,6-tetrahydropyridin-3-yl)-1H-pyrrolo[2,3-b]pyridine], the Ki in experiment [2] (setting [9]) was found to be 717 nM. `CCCN1CCOC(c2c[nH]c3c(Cl)cccc23)C1` (centres unmarked) [Example 247, 2-(7-chloro-1H-indol-3-yl)-4-propylmorpholine] yielded a Ki in experiment [2] (setting [5]) of 2560 nM. For the molecule `C1=C(c2c[nH]c3cnccc23)CNCC1` [Example 142, 3-(1,2,5,6-tetrahydropyridin-3-yl)-1H-pyrrolo[2,3-c]pyridine], in experiment [2] (secondary binding assay, Cheng-Prusoff, read-out: 5HT2A Ki), the Ki was 152 nM.

`CCCN1CCC=C(c2n[nH]c3c(Cl)ccc(F)c23)C1` [Example 177, 7-chloro-4-fluoro-3-(1-propyl-1,2,5,6-tetrahydropyridin-3-yl)-1H-indazole] displayed a Ki in experiment [2] (setting [5]) of 1830 nM.

`CC(C)(C)c1ccc2c(C3=CCCNC3)c[nH]c2c1` [Example 37, 6-(tert-butyl)-3-(1,2,5,6-tetrahydropyridin-3-yl)-1H-indole]: the affinity in experiment [2] (setting [9]) corresponds to a Ki of 9910 nM. Same read-out and setting: the value for `CC(C)c1cccc2c(C3=CCCN(Cc4ccccc4)C3)c[nH]c12` [Example 70, 3-(1-benzyl-1,2,5,6-tetrahydropyridin-3-yl)-7-(propan-2-yl)-1H-indole] was 2050 nM; that for `C1=C(c2c[nH]c3cc(-c4ccccc4)ccc23)CNCC1` [Example 39, 6-phenyl-3-(1,2,5,6-tetrahydropyridin-3-yl)-1H-indole] was 6760 nM. Molecule `CN1CC2C=C(c3n[nH]c4c(Cl)cccc34)C1CC2` (centres unmarked) [Example 224, 6-(7-chloro-1H-indazol-3-yl)-2-methyl-2-azabicyclo[2.2.2]oct-5-ene] gave a Ki in experiment [2] (setting [5]) of 8880 nM. For `Cc1ccc2c(C3=CCCNC3)c[nH]c2c1` [Example 29, 6-methyl-3-(1,2,5,6-tetrahydropyridin-3-yl)-1H-indole], the Ki in experiment [2] (setting [9]) came to 1200 nM. On the same count and under the same terms, the value for `COc1cccc2c(C3=CCCNC3)c[nH]c12` [Example 51, 7-methoxy-3-(1,2,5,6-tetrahydropyridin-3-yl)-1H-indole] was over 10000 nM. The molecule `CCCc1cccc2c(C3=CCCNC3)n[nH]c12` [Example 236] had a Ki in experiment [2] (setting [5]) of 294 nM. In turn, `C1=C(c2c[nH]c3nccc(-c4ccccc4)c23)CNCC1` [Example 12, 4-phenyl-3-(1,2,5,6-tetrahydropyridin-3-yl)-1H-pyrrolo[2,3-b]pyridine] came in with a Ki in experiment [2] (setting [9]) of 191 nM. `CN1CCC(c2n[nH]c3c(Cl)cccc23)C1` (centres unmarked) [Example 222, 7-chloro-3-(1-methylpyrrolidin-3-yl)-1H-indazole]: the inhibition constant (Ki) in experiment [2] (setting [5]) was 6980 nM. For `CCCN1CC=C(c2n[nH]c3c(Cl)cccc23)CC1` [Example 242, 7-chloro-3-(1-propyl-1,2,3,6-tetrahydropyridin-4-yl)-1H-indazole], the Ki in experiment [2] (setting [5]) was determined as 330 nM. `COc1cccc2c(C3=CCCNC3)n[nH]c12` [Example 92, 7-methoxy-3-(1,2,5,6-tetrahydropyridin-3-yl)-1H-indazole] displayed a Ki in experiment [2] (setting [9]) of 1090 nM. In experiment [2] (setting [5]), `N#Cc1cccc2c(C34CNCC3C4(F)F)n[nH]c12` (centres unmarked) [Example 202, 3-(6,6-difluoro-3-azabicyclo[3.1.0]hexan-1-yl)-1H-indazole-7-carbonitrile] registered a Ki of over 10000 nM.

On to `CC(C)N1CCOC(c2c[nH]c3c(Cl)cccc23)C1` (centres unmarked) [Example 248, 2-(7-chloro-1H-indol-3-yl)-4-isopropylmorpholine], for which the Ki in experiment [2] (setting [5]) is 5890 nM. The molecule `CN1CCC=C(c2c[nH]c3ccc(-c4ccccc4)cc23)C1` [Example 28, 3-(1-methyl-1,2,5,6-tetrahydropyridin-3-yl)-5-phenyl-1H-indole] displayed a Ki in experiment [2] (setting [9]) of 498 nM. On the same count and under the same terms, the value for `Cc1cccn2c(C3=CCCNC3)cnc12` [Example 112, 8-methyl-3-(1,2,5,6-tetrahydropyridin-3-yl)imidazo[1,2-a]pyridine] was 9040 nM; that for `CN1CCC=C(c2c[nH]c3c(C(=O)O)cccc23)C1` [Example 57, 3-(1-methyl-1,2,5,6-tetrahydropyridin-3-yl)-1H-indole-7-carboxylic acid] was over 10000 nM.

The EC50 is the concentration giving half of the maximal effect. The low end stands for greater potency, the high end for weaker potency. As usually defined, the Emax is the size of the effect at its maximum, as opposed to the concentration needed. Broadly, the Ki is the equilibrium dissociation constant of an inhibitor or competing ligand from its target.

(Values after patent US20260265246A1 (ICAHN SCHOOL OF MEDICINE AT MOUNT SINAI, priority 2021, published 2026).)
